Test results from US20230009608A1, “GRK2 INHIBITORS AND USES THEREOF” (Cygnal Therapeutics, Inc., priority 2020, published 2023).

Experiments:
[1] = test system: PAXF1657 cell line stably overexpressing GRK2; test: 7-day proliferation assay, PAXF1657 stably overexpressing GRK2 (Example 9); format: cell-based; details: for GI50: 168 h, 7-day compound treatment, CellTiter-Glo; for Ratio GRK2 overexpressing cells/Empty vector cells: GI50 in GRK2 overexpressing PAXF1657 over GI50 in empty vector PAXF1657
Description: In order to identify compounds specific for GRK2, we generated two isogenic cell line pairs of the pancreatic cancer cell line PAXF1657, a pair of cells stably overexpressing GRK2 cDNA or the control empty vector and a cell line pair of PAXF1657 GRK2 knockout clonal cells versus non-targeting control clonal cells.
Proliferation Assay: Cellular anti-proliferative activity of compounds was assessed by using the pancreatic cancer cell line, PAXF1657, stably overexpressing GRK2 cDNA or the control empty vector, as well as the parental urinary bladder cancer cell line, 5637. In addition, we also took advantage of GRK2 knockout cell lines that were generated via CRISPR. Cell lines were seeded into tissue culture treated, white-walled, 96-well plates at a density of 500 cells/well in RPMI1640 media supplemented with 10% H.I. FBS and penicillin/streptomycin. Plates were incubated overnight at 37° C., 5% CO2 to allow cells to adhere to the wells. GRK2 inhibitors were added to the cells using a 10-point dilution series with a final concentration ranging from 30 μM-0.0002 μM in 0.3% DMSO. At the time of compound addition, a set of plates, that were not treated with compounds, were collected and cell viability was measured using CellTiter-Glo (Promega). CellTiter-Glo reagent was added to the designed plates and luminescence was measuring using a Biotek Synergy plate reader. The compound treated cells were incubated for 3 days at 37° C., 5% CO2. The media was then aspirated from each well and replaced with fresh media containing GRK2 inhibitors. The compound treated cells were then incubated for an additional 4 days at 37° C., 5% CO2. Cell viability was assessed and at end of the 7-day compound treatment by CellTiterGlo.

GRK2 [2] = biological target: T1, GRK2 (Homo sapiens, UniProt P25098); test: GRK2 Inhibition Assay (TR-FRET, Example 7); format: biochemical; details: 1 nM GRK2, 7 μM ATP, TR-FRET; read-out: GRK2 IC50 (nM) (Example 7)
T1 construct: purchased SignalChem A14-10G
T1 sequence (P25098 1-689): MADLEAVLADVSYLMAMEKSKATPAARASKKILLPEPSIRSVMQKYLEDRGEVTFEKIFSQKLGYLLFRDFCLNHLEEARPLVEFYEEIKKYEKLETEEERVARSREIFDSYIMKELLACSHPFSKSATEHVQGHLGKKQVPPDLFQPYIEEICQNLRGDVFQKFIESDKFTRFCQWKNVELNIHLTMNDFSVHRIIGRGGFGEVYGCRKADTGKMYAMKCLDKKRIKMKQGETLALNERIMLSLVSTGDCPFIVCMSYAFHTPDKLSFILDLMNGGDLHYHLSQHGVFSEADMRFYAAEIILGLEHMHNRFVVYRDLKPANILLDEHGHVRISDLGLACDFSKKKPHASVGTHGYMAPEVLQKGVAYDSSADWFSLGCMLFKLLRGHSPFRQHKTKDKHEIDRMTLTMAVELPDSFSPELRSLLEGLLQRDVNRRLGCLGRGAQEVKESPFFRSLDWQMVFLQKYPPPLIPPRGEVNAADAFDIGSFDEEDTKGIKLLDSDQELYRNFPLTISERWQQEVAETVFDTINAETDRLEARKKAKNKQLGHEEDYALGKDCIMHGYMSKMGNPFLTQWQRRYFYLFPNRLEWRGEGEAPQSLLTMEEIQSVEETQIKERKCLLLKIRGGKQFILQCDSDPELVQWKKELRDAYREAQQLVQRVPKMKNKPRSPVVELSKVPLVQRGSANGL
Outline: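 GRK2 at 1 nM preincubated 30 min with compound, then reacted 90 min at room temperature with 7 μM ATP and 50 nM ULight-TopoIIα in HEPES/MgCl2/DTT buffer. Phosphorylation detected by TR-FRET after Eu anti-TopoIIα and EDTA addition, 60 min.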

[3] = test system: PAXF1657 control empty vector cell line; test: 7-day proliferation assay, PAXF1657 control empty vector cell line (Example 9); format: cell-based; details: 168 h; 7-day compound treatment, CellTiter-Glo
Outline: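 Cells plated at 500 per well and attached overnight. Next, 10-point inhibitor series added (30 μM-0.0002 μM, 0.3% DMSO) and a day-0 viability plate read. Then, after 3 days, medium with fresh compound. Finally, viability after 4 more days via CellTiter-Glo.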

GRK2 [4] = biological target: T1, GRK2; test: ADPGlo GRK2 Inhibition Assay (Example 8); format: biochemical; details: 7.5 nM GRK2, 10 μM ATP, ADP-Glo; read-out: GRK2 IC50 (nM) (Example 8)
Outline: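 GRK2 (15 nM 2× enzyme solution) was preincubated 15 min with compound, then reacted 180 min at room temperature with 2× mix of 20 μM ATP plus GRKtide in HEPES pH 7.5, MgCl2, Tween-20, DTT. ADP was detected by ADP-Glo luminescence. Percent inhibition was normalised to enzyme and no-enzyme controls, with dose-response curves from threefold dilutions starting at 100 μM.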

In the case of CCCn1c(CNc2cc(C(=O)NCc3ccccc3C(F)(F)F)ccn2)nnc1-c1ccncn1 [compound 35, 2-(((4-propyl-5-(pyrimidin-4-yl)-4H-1,2,4-triazol-3-yl)methyl)amino)-N-(2-(trifluoromethyl)benzyl)isonicotinamide], the GI50 [1] is reported as 3.22 µM, the “Ratio GRK2 overexpressing cells/Empty vector cells” value [1] is reported as 2.49 and the IC50 (GRK2 [2]) is reported as 4.5 nM. For the same compound, the GI50 [3] was 1.3 µM.

In the case of Cn1c(CNc2cccc(C(=O)NCc3cccnc3C(F)(F)F)c2)nnc1-c1ccncn1 [compound 4], the IC50 (GRK2 [4]) is reported as 36 nM, the GI50 [1] is reported as 4.59 µM and the “Ratio GRK2 overexpressing cells/Empty vector cells” value [1] is reported as 5.79. It also gave an IC50 (GRK2 [2]) of 28 nM and a GI50 [3] of 0.79 µM.

In the case of Cn1c(CNc2cccc(C(=O)NCc3ccccc3C(F)(F)F)c2)nnc1-c1ccncc1 [115h, reference compound], the GI50 [1] is reported as 10 µM, the “Ratio GRK2 overexpressing cells/Empty vector cells” value [1] is reported as 1.12 and the GI50 [3] is reported as 8.91 µM.

With COc1ccc(CNC(=O)c2cccc(NCc3nnc(-c4ccncn4)n3C)c2)c(F)c1 [compound 5] the IC50 (GRK2 [4]) was 19 nM, the GI50 [1] was 10.3 µM and the “Ratio GRK2 overexpressing cells/Empty vector cells” value [1] was 6.79. It also gave an IC50 (GRK2 [2]) of 5.4 nM and a GI50 [3] of 1.51 µM.

With Cn1c(CNc2cccc(C(=O)N[C@H]3CCOc4ccccc43)c2)nnc1-c1ccncn1 [compound 3] the IC50 (GRK2 [4]) was 18 nM, the GI50 [1] was 8.61 µM and the “Ratio GRK2 overexpressing cells/Empty vector cells” value [1] was 7.42. It also gave an IC50 (GRK2 [2]) of 10 nM and a GI50 [3] of 1.16 µM.

Cn1c(CNc2cccc(C(=O)N[C@H]3COc4ccccc43)c2)nnc1-c1ccncn1 [compound 26] was tested, and the IC50 (GRK2 [4]) was 9.8 nM, the GI50 [1] was 4.18 µM and the “Ratio GRK2 overexpressing cells/Empty vector cells” value [1] was 6.15. The GI50 [3] was 0.68 µM.

Compound Cn1c(CNc2cccc(C(=O)NC3(c4ccccc4)CCOCC3)c2)nnc1-c1ccncn1 [compound 8] has an IC50 (GRK2 [4]) of 140 nM, a GI50 [1] of 22.7 µM and an IC50 (GRK2 [2]) of 170 nM. It also gave a GI50 [3] greater than 30 µM.

In the case of COc1cccnc1CNC(=O)c1cccc(NCc2nnc(-c3ccncc3)[nH]2)c1 [compound 33], the IC50 (GRK2 [4]) is reported as 7.8 nM, the GI50 [1] is reported as 17.7 µM and the “Ratio GRK2 overexpressing cells/Empty vector cells” value [1] is reported as 13.27. It also gave a GI50 [3] of 1.33 µM.

For O=C(NCc1ccccc1C(F)(F)F)c1cccc(NCc2nnc3n2CCCOc2ccccc2-3)c1 [133a, reference compound], the GI50 [1] was 0.24 µM, the “Ratio GRK2 overexpressing cells/Empty vector cells” value [1] was 1.71 and the GI50 [3] was 0.14 µM.

Cn1c(CNc2cccc(C(=O)NC3CCOc4c(Cl)cccc43)c2)nnc1-c1ccncn1 (stereo not drawn) [compound 20] was tested, and the IC50 (GRK2 [4]) was 10 nM, the GI50 [1] was 7.99 µM and the “Ratio GRK2 overexpressing cells/Empty vector cells” value [1] was 7.76. For the same compound, the GI50 [3] was 1.03 µM.

CCn1ncc(CNC(=O)c2cccc(NCc3nnc(-c4ccncn4)n3C)c2)c1F [compound 15] was tested, and the IC50 (GRK2 [4]) was 18 nM, the GI50 [1] was 17.7 µM and the “Ratio GRK2 overexpressing cells/Empty vector cells” value [1] was 4.42. For the same compound, the GI50 [3] was 4.01 µM.

In the case of CCc1cnccc1CNC(=O)c1cccc(NCc2nnc(-c3ccncn3)n2C)c1 [compound 12], the IC50 (GRK2 [4]) is reported as 51 nM, the GI50 [1] is reported as 8.01 µM and the “Ratio GRK2 overexpressing cells/Empty vector cells” value [1] is reported as 8.24. The GI50 [3] was 0.97 µM.

In the case of C[C@@H](NC(=O)c1cccc(NCc2nnc(-c3ccncn3)n2C)c1)c1ncccc1Cl [compound 29], the IC50 (GRK2 [4]) is reported as 12 nM, the GI50 [1] is reported as 5.01 µM and the “Ratio GRK2 overexpressing cells/Empty vector cells” value [1] is reported as 4.04. The GI50 [3] was 1.24 µM.

With CCCn1c(CNc2cccc(C(=O)NCc3ccccc3C(F)(F)F)c2)nnc1-c1ccncn1 [139c, reference compound] the GI50 [1] was 1.47 µM, the “Ratio GRK2 overexpressing cells/Empty vector cells” value [1] was 1.75 and the GI50 [3] was 0.84 µM.

With Cc1ccnc(C(C)NC(=O)c2cccc(NCc3nnc(-c4ccncn4)n3C)c2)c1 (stereo not drawn) [compound 25] the GI50 [1] was 25.8 µM and the GI50 [3] was greater than 30 µM.

In the case of Cc1cccnc1C(C)NC(=O)c1cccc(NCc2nnc(-c3ccncn3)n2C)c1 (stereo not drawn) [compound 17], the IC50 (GRK2 [4]) is reported as 10 nM, the GI50 [1] is reported as 10.3 µM and the “Ratio GRK2 overexpressing cells/Empty vector cells” value [1] is reported as 4.89. It also gave a GI50 [3] of 2.11 µM.

In the case of Cn1c(CNc2cccc(C(=O)NCc3cc(F)cc(F)c3)c2)nnc1-c1ccncn1 [compound 10], the IC50 (GRK2 [4]) is reported as 15 nM, the GI50 [1] is reported as 13.7 µM and the “Ratio GRK2 overexpressing cells/Empty vector cells” value [1] is reported as 8.65. It also gave a GI50 [3] of 1.58 µM.
